In US8987193B2, “Nisin derivatives and the use thereof” (University College Cork—National University of Ireland, Cork, priority 2008, dated 2015):
Ends that are not written are not given here.

Tests used:
[1] = system: Strep. agalactiae ATCC13813; assay: Specific activity of purified peptide, equimolar concentrations; type: cell-based
Description: (§3) Deferred antagonism assays were performed by replicating strains on GM17 or GM17 x-gal agar plates and allowing them to grow overnight before overlaying with either GM17/BHI/TS/MH agar (0.75% w/v agar) seeded with the appropriate indicator strain. Zone size was calculated as the diameter of the zone of clearing minus the diameter of bacterial growth (5 mm) For higher throughput screening of N20PXX, XM21VX, XXK22T and XXX banks deferred antagonism assays were performed by replicating strains using a 96 pin replicator (Boekel) or spotting 5 μl of a fresh overnight culture on GM17 agar plates and allowing them to grow overnight. […] For well-diffusion assays molten agar was cooled to 48° C. and seeded with the appropriate indicator strain. The inoculated medium was rapidly transferred into sterile Petri plates in 50 ml volumes, allowed to solidify and dried. Wells (4.6 mm in diameter) were then made in the seeded plates. […] Bioactivity was expressed as arbitrary units/ml (AU/ml) and calculated as the reciprocal of the highest dilution that gave a definite zone multiplied by the conversion factor (i.e. 20 when 50 μl was used) (Ryan et al., 1996).

[2] = system: Strep. agalactiae ATCC13813; assay: Deferred antagonism assay; type: cell-based; conditions: chromosomal replacement strains; Strep. agalactiae ATCC 13813
[3] = system: Strep. agalactiae ATCC13813; assay: Deferred antagonism assay; type: cell-based; conditions: producing strain, diameter of zone minus 5 mm, average of duplicates
[4] = system: Staph. aureus ST528 (MRSA); assay: Deferred antagonism assay; type: cell-based; conditions: producing strain, diameter of zone minus diameter of bacterial growth (5 mm), average of duplicates
In short: (§1)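 Producer strains replicated on GM17 agar, grown overnight, then overlaid with soft agar (0.75% w/v) seeded with indicator strain. Zone size = clearing diameter minus 5 mm growth diameter, relative to NZ9800 pCI372nisA control; mean of duplicates.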

Staph. aureus DPC5245 = assay: Deferred antagonism assay; type: cell-based; conditions: producing strain; diameter of zone minus 5 mm; average of duplicates; St. aureus DPC5245
In short: as §1

indicator strains = assay: Deferred antagonism assays, various indicator strains (summary); type: cell-based; conditions: relative to nisin A-producing control; value = strains listed
In short: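 Producer strains were replicated on GM17 or GM17 x-gal agar, grown overnight, then overlaid with GM17, BHI, TS or MH soft agar (0.75% w/v) seeded with the indicator strain. Zone size was taken as the clearing diameter minus the diameter of bacterial growth (5 mm).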

L. lactis HP = assay: Deferred antagonism assay; type: cell-based, L. lactis spp cremoris; conditions: producing strain
Description: Deferred antagonism assays were performed by replicating strains on GM17 or GM17 x-gal agar plates and allowing them to grow overnight before overlaying with either GM17/BHI/TS/MH agar (0.75% w/v agar) seeded with the appropriate indicator strain. Zone size was calculated as the diameter of the zone of clearing minus the diameter of bacterial growth (5 mm) For higher throughput screening of N20PXX, XM21VX, XXK22T and XXX banks deferred antagonism assays were performed by replicating strains using a 96 pin replicator (Boekel) or spotting 5 μl of a fresh overnight culture on GM17 agar plates and allowing them to grow overnight. […] Additional sets of indicators were employed to further assess/reassess the bioactivity of a number of strains. […] For well-diffusion assays molten agar was cooled to 48° C. and seeded with the appropriate indicator strain. The inoculated medium was rapidly transferred into sterile Petri plates in 50 ml volumes, allowed to solidify and dried. […] Bioactivity was expressed as arbitrary units/ml (AU/ml) and calculated as the reciprocal of the highest dilution that gave a definite zone multiplied by the conversion factor (i.e. 20 when 50 μl was used) (Ryan et al., 1996).
In all cases the bioactivity of each variant was assessed by the size of the zone of inhibition in a deferred antagonism assay against various indicator strains. […]

L. monocytogenes CBC1 = assay: Deferred antagonism assay; type: cell-based, Listeria monocytogenes; set-up: key: + = Enhanced bioactivity relative to control; − = Bioactivity equal to or less than control; NA = no activity evident; conditions: producing strain; L. mono CBC1
In short: (§2)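 Producer strains replicated on GM17 or GM17 x-gal agar, grown overnight, then overlaid with 0.75% agar seeded with indicator strain. Zone size = diameter of clearing minus 5 mm growth diameter. Purified nisins tested by well diffusion at 37° C overnight; activity in AU/ml from reciprocal of highest active dilution × 20.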

L. monocytogenes CBC2 = assay: Deferred antagonism assay; type: cell-based, Listeria monocytogenes; set-up: key: + = Enhanced bioactivity relative to control; − = Bioactivity equal to or less than control; NA = no activity evident; conditions: producing strain; L. mono CBC2
In short: as §2

L. monocytogenes CBC3 = assay: Deferred antagonism assay; type: cell-based, Listeria monocytogenes; set-up: key: + = Enhanced bioactivity relative to control; − = Bioactivity equal to or less than control; NA = no activity evident; conditions: producing strain; L. mono CBC3
In short: as §2

L. plantarum CBC6 = assay: Deferred antagonism assay; type: cell-based, Lactobacillus plantarum; set-up: key: + = Enhanced bioactivity relative to control; − = Bioactivity equal to or less than control; NA = no activity evident; conditions: producing strain
In short: as §2

L. lactis CBC8 = assay: Deferred antagonism assay; type: cell-based; set-up: key: + = Enhanced bioactivity relative to control; − = Bioactivity equal to or less than control; NA = no activity evident; conditions: producing strain
In short: as §2

L. lactis CBC7 = assay: Deferred antagonism assay; type: cell-based; set-up: key: + = Enhanced bioactivity relative to control; − = Bioactivity equal to or less than control; NA = no activity evident; conditions: producing strain
In short: as §2

S. aureus CBC4 = assay: Deferred antagonism assay; type: cell-based; set-up: key: + = Enhanced bioactivity relative to control; − = Bioactivity equal to or less than control; NA = no activity evident; conditions: producing strain
In short: as §2

Listeria innocua FH2051 = assay: Co-cultivation assay in GM17; type: cell-based; conditions: GM17, 30° C.
Description: The indicator used for this trial was Listeria innocua FH2051 or L. monocytogenes EGDe. GM17 was co-inoculated with Listeria and the nisin variant producer being tested. […] The culture preparations were incubated at 30° C. Listeria numbers were determined on the basis of viable counts. For this purpose a dilution series were prepared at specific time intervals and plated onto Listeria selective agar base (Oxford formulation) (Oxoid Ltd.).
Assessment of the ability of nisin-variant producing lactococci to inhibit the growth of Listeria in broth: The ability of Listeria to survive in the presence of nisin-producing L. lactis strains was examined using a co-cultivation approach. Initial trials employed Listeria innocua FH2051 as a target.

Staph. aureus ST528 = assay: Specific activity of purified peptide, equimolar concentrations; type: cell-based
Description: as §3

C. sporogenes CBC5 = assay: Deferred antagonism assay; type: cell-based, Clostridium sporogenes; set-up: key: + = Enhanced bioactivity relative to control; − = Bioactivity equal to or less than control; NA = no activity evident; conditions: producing strain

## NisinA N20P (ITSISLCTPGCKTGALMGCPMKTATCHCSIHVSK; not fully specified; also: lantibiotic nisin: dehydrated residues and thioether rings not placed; UniProt P13068 24-57, looked up, variant N20P) [nisin A derivative, hinge substitution N20P]
[1]
  reduction in specific activity relative to nisin A: 75%
[2]
  bacteriocin production/bioactivity relative to L. lactis NZ9700: enhanced
[3]
  zone size relative to that of the NZ9800 pCI372nisA control: 22%
[4]
  zone size relative to that of the NZ9800 pCI372nisA control: 125%
Staph. aureus DPC5245
  zone size relative to that of the NZ9800 pCI372nisA control: 123%
Indicator strains
  Strain(s) against which the derivative (producing strain) displays enhanced bioactivity: CBC4, L. monocytogenes CBC3, C. sporogenes CBC5 and L. lactis CBC7
L. lactis HP
  bioactivity against L. lactis HP relative to control: enhanced
L. monocytogenes CBC1
  Bioactivity relative to control: −
L. monocytogenes CBC2
  Bioactivity relative to control: −
L. monocytogenes CBC3
  Bioactivity relative to control: +
L. plantarum CBC6
  Bioactivity relative to control: −
L. lactis CBC8
  Bioactivity relative to control: −
L. lactis CBC7
  Bioactivity relative to control: +
S. aureus CBC4
  Bioactivity relative to control: +
Listeria innocua FH2051
  impact on growth of FH2051: reduced its numbers
Staph. aureus ST528
  increased specific activity relative to nisin A: 100%
C. sporogenes CBC5
  Bioactivity relative to control: +
